The target of this test is T1, human FSH receptor (Homo sapiens, UniProt P23945).
T1 construct: expressed in transfected cells; host or cells: CHO cells (hFSHR clone 16)
T1 sequence (P23945 18-695): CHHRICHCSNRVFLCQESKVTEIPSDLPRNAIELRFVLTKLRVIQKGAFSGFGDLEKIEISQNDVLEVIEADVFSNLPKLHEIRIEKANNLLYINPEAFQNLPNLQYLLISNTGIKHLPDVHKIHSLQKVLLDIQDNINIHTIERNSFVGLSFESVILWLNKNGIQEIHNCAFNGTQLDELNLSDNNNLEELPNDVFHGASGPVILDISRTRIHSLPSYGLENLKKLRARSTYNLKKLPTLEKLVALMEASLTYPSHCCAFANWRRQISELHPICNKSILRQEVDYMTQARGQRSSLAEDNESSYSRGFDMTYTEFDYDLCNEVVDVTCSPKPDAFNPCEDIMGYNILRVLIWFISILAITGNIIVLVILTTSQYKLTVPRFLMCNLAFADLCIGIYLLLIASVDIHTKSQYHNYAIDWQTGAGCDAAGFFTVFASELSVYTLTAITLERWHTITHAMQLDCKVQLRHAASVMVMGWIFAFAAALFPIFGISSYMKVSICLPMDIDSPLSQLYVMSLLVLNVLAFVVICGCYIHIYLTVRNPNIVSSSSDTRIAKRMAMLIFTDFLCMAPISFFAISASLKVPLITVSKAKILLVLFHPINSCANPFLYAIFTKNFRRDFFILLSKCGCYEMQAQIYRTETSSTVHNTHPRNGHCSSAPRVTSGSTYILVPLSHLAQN
The test can be described thus: HTRF assay for measuring cAMP in cells (FSH antagonism). It is filed as cell-based. The conditions noted are these: FSH-antagonistic effect; hFSHR clone 16 cells (CHO cells stably transfected with the human FSH receptor); in the presence of 1e-9 mol/l hFSH; 37°C for 2h. Here is the method: The method is based on a competitive immunoassay between native cAMP, which has been produced by the cells, and cAMP which is labelled with cAMPD2 conjugate. The tracer binding was visualized by a monoclonal antibody, anti-cAMP labelled with cryptate [HTRF = homogeneous time-resolved fluorescence]. The specific signal is inversely proportional to the cAMP concentration of the samples employed. The 665nm/ 620nm fluorescence ratio was evaluated.
Materials used: 96-well plates for the tissue culture, 96-well plates with black edge and black base (e.g. Fluotrac 600 from Greiner), 96-well plates for the substance dilutions of polypropylene and cAMP Femtomolar (4000wells Kit, CIS Bio International # 62AM5PEJ). Reagent used: BSA (bovine serum albumin) Fraction V protease-free, IBMX (3-isobutyl-1-methylxanthine), hFSH (human follicle stimulating hormone), Triton X-100 analytical grade, potassium fluoride analytical grade, G 418 (Geneticin) and Accutase.
Buffer 1 (washing and testing buffer) contained PBS, 1 mM CaCl2, 1 mM MgCl2, 0.2% glucose; 0.1% BSA, 1 mM IBMX.
Buffer 2 (2x lysis buffer) contained 1% Triton X-100 in PBS (without CaCl2 and MgCl2).
Buffer 3 (assay buffer) contained 50 mM potassium phosphate buffer (pH 7.0); 800 mM potassium fluoride; 0.2% BSA (always added fresh).
On day 1, the cells were seeded in 96-well plates (3x10^4 cells per well hFSHR clone 16 cells (CHO cells stably transfected with the human FSH receptor in 150 µl of medium). The next day, test substance dilutions were made up. For this purpose, all the substances were diluted in ice-cold buffer 1 (with or without hFSH), and the substance dilutions were placed on ice until applied to the cells. The cell supernatant was then aspirated off, and the cells were washed 2x with 200 µl of buffer 1. The cells were treated with 60 µl of the appropriate substance concentrations at 37°C for 2h. The cells were then lysed with 60 µl of buffer 2 (put onto the supernatant) (on a plate shaker at RT for 30 min). The test conjugates (cAMP-D2 and anti-cAMP cryptate, CIS Bio) were diluted in buffer 3 in accordance with the manufacturers' information. The actual mixture for measurement was pipetted into a black 96-well plate (in each case 15 µl of the cell lysate diluted with 35 µl of buffer 1; firstly 25 µl of cAMP-D2 conjugate were pipetted and, after 10 min, 25 µl of the anti-cAMP cryptate were added). This is followed by incubation at RT for 90 minutes. The measurement was carried out in a PheraStar (BMG).
Dose-effect curve (hFSH) for the human receptor: 1 e-8, 3e-9, 1 e-9, 3e-10, 1e-10, 3e-11, 1 e-11, 3e-12 mol/I. The test substances were employed in suitable dilutions in the absence (test for agonism) and in the presence of 1e-9 mol/l hFSH.
The values of the well ratio were averaged and then entered directly in SigmaPlot versus the concentrations. The maximum and minimum values were determined for each plate, and half the difference is to be regarded as IC50. […] Table 1. FSH-antagonistic effect of selected compounds in the HTRF assay

The results in this text go back to EP1932831A1, “1,2-Diarylacetylene Derivatives of Acyltryptophanols” (Bayer Schering Pharma Aktiengesellschaft, priority 2006, dated 2008).

Usually IC50 stands for the concentration that gives 50% inhibition.

Take `Cc1ccccc1C#Cc1ccc(OC(C)C)c(C(=O)N[C@@H](CO)Cc2c[nH]c3ccccc23)c1` [Example 5, N-[(R)-1-Hydroxymethyl-2-(1H-indol-3-yl)-ethyl]-2-isopropoxy-5-o-tolylethynyl-benzamide]: the IC50 was 80 nM.

For the compound `CC(C)Oc1ccc(C#Cc2ccccc2)cc1C(=O)NC(CO)Cc1c[nH]c2ccc(F)cc12` (stereo not shown) [Example 21, N-[2-(5-Fluoro-1H-indol-3-yl)-1-hydroxymethyl-ethyl]-2-isopropoxy-5-phenylethynyl-benzamide], the IC50 was 300 nM. For `COc1ccccc1C#Cc1cc(C(=O)N[C@@H](CO)Cc2c[nH]c3ccccc23)c2ccccc2c1` [Example 6, 3-(2-Methoxy-phenylethynyl)-naphthalene-1-carboxylic acid [(R)-1-hydroxymethyl-2-(1H-indol-3-yl)-ethyl]-amide], the IC50 was found to be 100 nM. With `COc1ccccc1C#Cc1ccc(OC(C)C)c(C(=O)NC(CO)Cc2c[nH]c3ccc(F)cc23)c1` (stereo not shown) [Example 22, N-[2-(5-Fluoro-1H-indol-3-yl)-1-hydroxymethyl-ethyl]-2-isopropoxy-5-(2-methoxy-phenylethynyl)-benzamide] the figure was 150 nM. Turning to `COc1ccccc1C#Cc1ccc(OC(C)C)c(C(=O)NC(CO)Cc2c[nH]c3cc(F)c(F)cc23)c1` (racemic) [Example 23, N-[(RS)-2-(5,6-Difluoro-1H-indol-3-yl)-1-hydroxymethyl-ethyl]-2-isopropoxy-5-(2-methoxy-phenylethynyl)-benzamide], the IC50 came to 30 nM.

Consider `CCCOc1ccc(C#Cc2ccccc2OC)cc1C(=O)N[C@@H](CO)Cc1c[nH]c2ccccc12` [Example 2, N-[(R)-1-Hydroxymethyl-2-(1H-indol-3-yl)-ethyl]-5-(2-methoxyphenylethynyl)-2-propoxy-benzamide], for which the 50% inhibitory concentration (IC50) was determined as 70 nM. Consider `COc1ccccc1C#Cc1ccc(OC(C)C)c(C(=O)N[C@H](Cc2c[nH]c3ccccc23)C(C)(C)O)c1` [Example 20, N-[(R)-2-Hydroxy-1-(1H-indol-3-ylmethyl)-2-methyl-propyl]-2-isopropoxy-5-(2-methoxy-phenylethynyl)-benzamide], for which the IC50 was 700 nM. Take `CCCOc1ccc(C#Cc2ccccc2)cc1C(=O)N[C@@H](CO)Cc1c[nH]c2ccccc12` [Example 1, N-[(R)-1-Hydroxymethyl-2-(1H-indol-3-yl)-ethyl]-5-phenylethynyl-2-propoxybenzamide]: the IC50 is 250 nM. As to `CCn1cc(C[C@H](CO)NC(=O)c2cc(C#Cc3ccccc3OC)ccc2OC(C)C)c2ccccc21` [Example 24, N-[(R)-2-(1-Ethyl-1H-indol-3-yl)-1-hydroxymethyl-ethyl]-2-isopropoxy-5-(2-methoxy-phenylethynyl)-benzamide], the IC50 worked out at 20 nM. Regarding `COc1ccccc1C#Cc1ccc(OC(C)C)c(C(=O)N[C@H](CO)Cc2c[nH]c3ccccc23)c1` [Example 4, N-[(S)-1-Hydroxymethyl-2-(1H-indol-3-yl)-ethyl]-2-isopropoxy-5-(2-methoxy-phenylethynyl)-benzamide], the 50% inhibitory concentration (IC50) was determined as 7500 nM.
